Measurements reported in patent publication US7842808B2, “Anti-migraine spirocycles” (Bristol-Myers Squibb Company, priority 2002, dated 2010).
Where two headings read alike, the source gives them in different places.

How the values were obtained:
[1] = biological target: T1, human CGRP receptor (SK-N-MC cells) (Homo sapiens, UniProt O60894+Q16602); assay: Cyclic AMP Assay, functional antagonism of CGRP-induced cyclic AMP formation; format: cell-based
T1 construct: SK-N-MC cells that endogenously express the human CGRP receptor; endogenous in cells; host or cells: SK-N-MC cells
Experimental: Functional Antagonism. Antagonism of the compounds of invention was determined by measuring the formation of cyclic AMP (adenosine 3′5′-cyclic monophosphate) in SK-N-MC cells that endogenously express the human CGRP receptor. […] For cyclic AMP measurements SK-N-MC cells were incubated with 0.3 nM CGRP alone or in the presence of various concentrations of the compounds of invention for 30 min at room temperature. […] Cyclic AMP was extracted using the lysis reagent and its concentration was determined by radioimmunoassay using RPA559 cAMP SPA Direct Screening Assay Kit (Amersham Pharmacia Biotech). IC50 values were calculated using Excel fit.

[2] = biological target: T2, CGRP receptor (SK-N-MC cell membranes) (Homo sapiens, UniProt O60894+Q16602); assay: CGRP Binding Assay ([125I]-CGRP radioligand binding, SK-N-MC homogenate); conditions: displacement of [125I]-CGRP, SK-N-MC homogenate; read-out: CGRP binding IC50
T2 construct: endogenous in cells; host or cells: SK-N-MC cells (membrane homogenate)

[3] = SK-N-MC cells, 0.3 nM CGRP, read-out: cAMP Function IC50

T1 sequence (Q16602 23-461): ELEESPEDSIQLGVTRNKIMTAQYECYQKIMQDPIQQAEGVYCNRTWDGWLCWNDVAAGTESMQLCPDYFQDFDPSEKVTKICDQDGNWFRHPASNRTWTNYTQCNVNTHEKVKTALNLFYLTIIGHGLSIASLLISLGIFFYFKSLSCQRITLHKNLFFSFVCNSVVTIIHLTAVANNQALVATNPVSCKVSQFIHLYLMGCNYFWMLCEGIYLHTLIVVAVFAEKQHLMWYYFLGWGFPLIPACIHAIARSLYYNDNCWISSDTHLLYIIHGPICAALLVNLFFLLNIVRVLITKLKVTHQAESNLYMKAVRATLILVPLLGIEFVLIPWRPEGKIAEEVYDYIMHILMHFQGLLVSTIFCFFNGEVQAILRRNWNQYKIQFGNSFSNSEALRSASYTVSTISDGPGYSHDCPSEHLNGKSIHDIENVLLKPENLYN
T1 sequence (O60894 27-148): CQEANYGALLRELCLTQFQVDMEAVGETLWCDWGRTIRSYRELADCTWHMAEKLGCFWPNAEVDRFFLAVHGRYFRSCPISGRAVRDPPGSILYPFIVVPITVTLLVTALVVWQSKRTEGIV
T2 sequence (Q16602 23-461): as the sequence (Q16602 23-461) above
T2 sequence (O60894 27-148): as the sequence (O60894 27-148) above

Compound | IC50 [1, 3] | IC50 [2] | IC50 [1]
Cc1cc(CC(NC(=O)N2CCC3(CC2)N=C(c2ccccc2)NC3=O)C(=O)N2CCC(N3CCCCC3)CC2)cc2cn[nH]c12 (racemic) [Example 34, (±)-4-Oxo-2-phenyl-1,3,8-triaza-spiro[4,5]dec-1-ene-8-carboxylic acid {1-(7-methyl-1H-indazol-5-yl methyl)-2-[1,4]bipiperidinyl-1′-yl-2-oxo-ethyl}-amide] | < 10 nM | < 10 nM | –
CC(C)(C)OC(=O)n1ncc2cc(CC(CC(=O)N3CCC(N4Cc5ccccc5NC4=O)CC3)C(=O)N3CCC(N4CCCCC4)CC3)ccc21 (racemic) [Example 83, (±)-5-{2-([1,4′]Bipiperidinyl-1′-carbonyl)-4-oxo-4-[4-(2-oxo-1,4-dihydro-2H-quinazolin-3-yl)-piperidin-1-yl]-butyl}-indazole-1-carboxylic acid tert-butyl ester] | 100 to 1000 nM | 10 to 100 nM | –
O=C(C[C@H](NCc1ccc2[nH]ncc2c1)C(=O)N1CCC(N2CCCCC2)CC1)N1CCC(N2Cc3ccccc3NC2=O)CC1 [Example 94, (L)-1-[1,4′]Bipiperidinyl-1′-yl-2-((5′-indazolyl)-methyl-amino)-4-[4-(2-oxo-1,4-dihydro-2H-quinazolin-3-yl)-piperidin-1-yl]-butane-1,4-dione] | 100 to 1000 nM | 100 to 1000 nM | –
Cc1nc(N[C@@H](CC(=O)N2CCC(N3Cc4ccccc4NC3=O)CC2)C(=O)N2CCC(N3CCCCC3)CC2)nc2nn[nH]c12 [Example 92, (L)-1-[1,4′]Bipiperidinyl-1′-yl-2-(7-methyl-1H-[1,2,3]triazolo[4,5-d]pyrimidin-5-ylamino)-4-[4-(2-oxo-1,4-dihydro-2H-quinazolin-3-yl)-piperidin-1-yl]-butane-1,4-dione] | 100 to 1000 nM | 10 to 100 nM | –
O=C(CC(Cc1ccc2[nH]ncc2c1)C(=O)N1CCC2(CC1)OCCO2)N1CCC(N2Cc3ccccc3NC2=O)CC1 (racemic) [Example 81, (±)-1-(1,4-Dioxa-8-aza-spiro[4.5]dec-8-yl)-2-(1H-indazol-5-ylmethyl)-4-[4-(2-oxo-1,4-dihydro-2H-quinazolin-3-yl)-piperidin-1-yl]-butane-1,4-dione] | – | 10 to 100 nM | 100 to 1000 nM
O=C1CC2(CCN(C(=O)N[C@H](Cc3csc4ccccc34)C(=O)N3CCC(N4CCCCC4)CC3)CC2)c2ccccc2N1 [Example 62, N-[(1R)-1-(Benzo[b]thien-3-ylmethyl)-2-[1,4-bipiperidin]-1-yl-2-oxoethyl]-3′,4′-dihydro-2-oxospiro-[piperidine-4,4′(1H)-quinoline]-1-carboxamide] | 10 to 100 nM | 10 to 100 nM | –
CN(C)C(=O)C(CC(=O)N1CCC(N2Cc3ccccc3NC2=O)CC1)Cc1ccc2[nH]ncc2c1 (racemic) [Example 82, (±)-2-(1H-Indazol-5-ylmethyl)-N,N-dimethyl-4-oxo-4-[4-(2-oxo-1,4-dihydro-2H-quinazolin-3-yl)-piperidin-1-yl]-butyramide] | 100 to 1000 nM | 10 to 100 nM | –
O=C(C[C@H](Nc1nc(Cl)nc2[nH]cnc12)C(=O)N1CCC(N2CCCCC2)CC1)N1CCC(N2Cc3ccccc3NC2=O)CC1 [Example 89, (L)-1-[1,4′]Bipiperidinyl-1′-yl-2-(2-chloro-9H-purin-6-ylamino)-4-[4-(2-oxo-1,4-dihydro-2H-quinazolin-3-yl)-piperidin-1-yl]-butane-1,4-dione] | 10 to 100 nM | 100 to 1000 nM | –
CC1(C)CN(CC(NC(=O)N2CCC(N3Cc4ccccc4NC3=O)CC2)C(=O)N2CCC(N3CCCCC3)CC2)Cc2cn[nH]c21 (racemic) [Example 56, (±)-4-(2-Oxo-1,4-dihydro-2H-quinazolin-3-yl)-piperidine-1-carboxylic acid[2-[1,4′]bipiperidinyl-1′-yl-1-(7,7-dimethyl-1,4,6,7-tetrahydro-pyrazolo[4,3-c]pyridin-5-ylmethyl)-2-oxo-ethyl]-amide] | < 10 nM | < 10 nM | –
